The values that follow come from paper PMC9321952 (Molecular Ecology, 2022).

Experiment in all cases: Fluo-4 calcium fluorescence assay, HEK293 cells
Holding throughout (details): agonist; co-expressed with ItypOrco; room temperature

One assay has as its system HabiOR4^HsCO. The assay is classed as cell-based, Hylobius abietis.
The test system of another assay is DponOR8^HsCO. It counts as cell-based, Dendroctonus ponderosae.
Another assay has as its system ItypOR6. The assay is classed as cell-based, Ips typographus.
Another assay relates to HabiOR3. It counts as cell-based, Hylobius abietis.

pEC50: −log10 of the molar value.

With `CCCCCCO` [1-hexanol], the negative logarithm of the EC50 (pEC50) with HabiOR4^HsCO is 5.55.

On to `OCCc1ccccc1` [2-phenylethanol], for which the negative logarithm of the EC50 (pEC50) with DponOR8^HsCO is 5.29; in the assay on ItypOR6, 5.46; in the assay with HabiOR3, 5.07.

For the molecule `CCC/C=C/CO` [E2-hexenol], the pEC50 in the assay with HabiOR4^HsCO is 5.41.

`CCC/C=C\CO` [Z2-hexenol]: the pEC50 with HabiOR4^HsCO is 5.13.

`CC/C=C\CCO` [Z3-hexenol]: the negative-log EC50 (pEC50) with HabiOR4^HsCO is 5.10.
